Reference: US5039805A, “Novel benzoic and phenylacetic acid derivatives” (Hoffmann-La Roche Inc., priority 1988, dated 1991)
Where a SMILES comes first, the peptide text is derived from it. [ ]: non-standard residue; d: D form. The star is where a group is joined. 3Abz = Nc1cccc(C(=O)O)c1; Boc = CC(C)(C)OC(=O)*

Molecular target: T1, fibrinogen receptor, glycoprotein IIb/IIIa (Homo sapiens, UniProt P05106+P08514)
T1 construct: obtained from Triton X-100 extracts of human blood platelets; from tissue
Assay: inhibition of the binding of fibrinogen to the immobilized fibrinogen receptor (ELISA)
Details: fibrinogen binding to immobilized glycoprotein IIb/IIIa from human blood platelets, read-out: IC50 (inhibition of the binding of fibrinogen to the immobilized receptor by 50%)
Protocol: The glycoprotein IIb/IIIa is obtained from Triton X-100 extracts of human blood platelets and is purified by lectin affinity chromatography (Analytical Biochemistry 151, 1985, 169-177) and chromatography on an Arg-Gly-Asp-Ser affinity column (Science 231, 1986, 1559-62). The thus-obtained receptor protein is bonded to microtitre plates. The specific binding of fibrinogen to the immobilized receptor is determined with the aid of an ELISA system ("enzyme-linked immunosorbent assay"). The IC50 values hereinafter correspond to that concentration of the test substance which is required to inhibit the binding of fibrinogen to the immobilized receptor by 50%: […]

T1 sequence (P08514 32-887 limits assumed): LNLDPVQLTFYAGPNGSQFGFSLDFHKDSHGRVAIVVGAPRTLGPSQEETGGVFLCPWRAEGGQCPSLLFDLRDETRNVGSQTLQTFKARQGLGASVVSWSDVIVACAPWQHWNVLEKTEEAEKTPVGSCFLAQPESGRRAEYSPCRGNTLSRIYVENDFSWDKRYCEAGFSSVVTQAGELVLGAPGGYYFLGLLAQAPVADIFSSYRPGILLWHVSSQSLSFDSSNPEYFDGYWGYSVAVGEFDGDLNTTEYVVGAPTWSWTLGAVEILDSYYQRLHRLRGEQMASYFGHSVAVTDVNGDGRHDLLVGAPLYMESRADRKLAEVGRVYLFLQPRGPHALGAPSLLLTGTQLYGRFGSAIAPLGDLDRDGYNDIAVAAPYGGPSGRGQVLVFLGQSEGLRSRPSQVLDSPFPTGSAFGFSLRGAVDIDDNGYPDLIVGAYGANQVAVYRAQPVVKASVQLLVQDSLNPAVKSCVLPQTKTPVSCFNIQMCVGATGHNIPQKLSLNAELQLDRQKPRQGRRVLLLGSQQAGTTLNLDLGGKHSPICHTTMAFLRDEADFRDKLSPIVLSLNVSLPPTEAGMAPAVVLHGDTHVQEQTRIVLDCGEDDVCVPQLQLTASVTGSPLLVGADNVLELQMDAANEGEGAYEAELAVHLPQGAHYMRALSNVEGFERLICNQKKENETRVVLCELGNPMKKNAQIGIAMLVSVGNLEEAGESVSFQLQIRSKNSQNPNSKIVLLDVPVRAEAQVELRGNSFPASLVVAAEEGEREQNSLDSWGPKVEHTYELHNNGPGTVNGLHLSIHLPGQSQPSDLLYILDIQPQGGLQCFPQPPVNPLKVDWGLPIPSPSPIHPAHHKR
T1 sequence (P08514 891-1039 limits assumed): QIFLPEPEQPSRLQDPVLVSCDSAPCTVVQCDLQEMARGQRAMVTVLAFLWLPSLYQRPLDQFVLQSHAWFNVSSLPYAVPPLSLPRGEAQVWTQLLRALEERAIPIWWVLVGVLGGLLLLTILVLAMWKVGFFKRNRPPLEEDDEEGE
T1 sequence (P05106 27-788): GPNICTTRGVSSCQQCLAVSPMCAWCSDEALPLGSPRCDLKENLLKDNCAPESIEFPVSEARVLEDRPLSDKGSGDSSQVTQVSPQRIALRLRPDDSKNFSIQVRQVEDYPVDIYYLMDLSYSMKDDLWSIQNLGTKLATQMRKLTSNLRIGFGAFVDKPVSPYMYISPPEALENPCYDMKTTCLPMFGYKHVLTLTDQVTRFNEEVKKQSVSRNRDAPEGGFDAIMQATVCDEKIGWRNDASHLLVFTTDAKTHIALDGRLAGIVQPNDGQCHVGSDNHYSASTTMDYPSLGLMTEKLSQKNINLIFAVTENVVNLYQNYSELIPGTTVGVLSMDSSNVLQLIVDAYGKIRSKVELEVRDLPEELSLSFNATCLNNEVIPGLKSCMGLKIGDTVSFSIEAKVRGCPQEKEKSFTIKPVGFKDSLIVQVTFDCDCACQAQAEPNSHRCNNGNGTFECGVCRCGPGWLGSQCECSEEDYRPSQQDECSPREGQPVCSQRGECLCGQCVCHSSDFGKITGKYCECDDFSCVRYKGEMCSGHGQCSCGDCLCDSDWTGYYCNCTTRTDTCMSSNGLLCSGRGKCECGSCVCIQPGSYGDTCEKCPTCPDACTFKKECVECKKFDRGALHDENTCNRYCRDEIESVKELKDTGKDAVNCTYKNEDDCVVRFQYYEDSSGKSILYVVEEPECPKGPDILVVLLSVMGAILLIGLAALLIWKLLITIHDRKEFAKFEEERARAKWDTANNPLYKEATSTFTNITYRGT

| SMILES | IC50 |
| --- | --- |
| CC(C)[C@H](NC(=O)[C@H](CC(=O)O)NC(=O)c1cccc(NC(=O)[C@@H](N)CCCNC(=N)N)c1)C(=O)O [Example 14, N-[N-[m-(L-arginylamino)benzoyl]-L-α-aspartyl]-L-valine] (H-R[3Abz]DV-OH) | 300 nM |
| N=C(N)c1ccc(C(=O)Nc2cccc(C(=O)N[C@@H](CC(=O)O)C(=O)N[C@@H](Cc3cccc4ccccc34)C(=O)O)c2)cc1 [Example 34, N-[N-[m-(p-amidinobenzamido)benzoyl]-L-α-aspartyl]-3-(1-naphthyl)-L-alanine] | 46 nM |
| O=C(O)CCNC(=O)c1cccc(NC(=O)CCC2CCNCC2)c1 [Example 53, N-[m-[3-(4-piperidinyl)propionamido]benzoyl]-β-alanine] | 70 nM |
| COC(=O)[C@H](CC(=O)O)NC(=O)c1cccc(NC(=O)c2ccc(C(=N)N)cc2)c1 [Example 60, (S)-3-[m-(p-amidinobenzamido)benzamido]-3-(methoxycarbonyl)propionic acid] | 50 nM |
| CC(C)(C)OC(=O)N[C@@H](CCCN)C(=O)Nc1cccc(C(=O)NCCC(=O)O)c1 [Example 28, N-[m-[[(S)-N2-(t-butoxycarbonyl)-L-ornithyl]amino]benzoyl]-β-alanine] | 140 nM |
| N=C(N)c1ccc(C(=O)Nc2ccc(C(=O)NCCC(=O)O)cc2)cc1 [Example 51, N-[p-(p-amidinobenzamido)benzoyl]-β-alanine] | 17 nM |
| N=C(N)c1ccc(C(=O)Nc2cc(C(=O)NCCC(=O)O)ccc2O)cc1 [Example 56, N-[3-(p-amidinobenzamido)-4-hydroxybenzoyl]-β-alanine] | 5 nM |
| NCCCCC(=O)Nc1cccc(C(=O)NC(CC(=O)O)c2ccc3c(c2)CCC3)c1 (racemic) [Example 41, DL-N-[m-(5-aminovaleramido)benzoyl]-3-(5-indanyl)-β-alanine] | 280 nM |
| N=C(N)NCCCCCC(=O)Nc1cccc(C(=O)NCCC(=O)O)c1 [Example 10, N-[m-(6-guanidinohexanamido)benzoyl]-β-alanine] | 260 nM |
| N=C(N)c1ccc(CC(=O)Nc2cccc(C(=O)N[C@@H](CC(=O)O)C(=O)N[C@@H](Cc3ccccc3)C(=O)O)c2)cc1 [Example 65, N-[N-[m-[2-(p-amidinophenyl)acetamido]benzoyl]-L-α-aspartyl]-3-phenyl-L-alanine] | 84 nM |
| CC(C)[C@H](NC(=O)[C@H](CC(=O)O)NC(=O)c1cccc(NC(=O)[C@H](CCCN=C(N)N)NC(=O)OC(C)(C)C)c1)C(=O)O [Example 15, [m-(Boc-Arg-NH)benzoyl]-Asp-Val] (Boc-R[3Abz]DV-OH) | 80 nM |
| N=C(N)N1CCC(C(=O)Nc2cccc(C(=O)N[C@@H](CC(=O)O)C(=O)N[C@@H](Cc3ccccc3)C(=O)O)c2)CC1 [Example 64, N-[N-[m-(1-amidino-4-piperidinecarboxamido)benzoyl]-L-α-aspartyl]-3-phenyl-L-alanine] | 220 nM |

The remaining lines, values ahead:

| IC50 | SMILES |
| --- | --- |
| 140 nM | N=C(N)c1ccc(CC(=O)Nc2cccc(C(=O)NCCC(=O)O)c2)cc1 [Example 52, N-[m-[2-(p-amidinophenyl)acetamido]benzoyl]-β-alanine] |
| 250 nM | N=C(N)NCCCCC(=O)Nc1cccc(C(=O)NCCC(=O)O)c1 [Example 22, N-[m-(5-guanidinovaleramido)benzoyl]-β-alanine] |
| 120 nM | NCc1ccc(CC(=O)Nc2cccc(C(=O)NCCC(=O)O)c2)cc1 [Example 32, N-[m-[2-(α-amino-p-tolyl)acetamido]benzoyl]-β-alanine] |
| 220 nM | N=C(N)NCc1ccc(C(=O)Nc2cccc(C(=O)NCCC(=O)O)c2)cc1 [Example 13, N-[m-(α-guanidino-p-toluamido)benzoyl]-β-alanine] |
| 0.1 nM | N=C(N)c1ccc(C(=O)Nc2cccc(C(=O)NCCC(=O)O)c2)cc1 [Example 35, N-[m-(p-amidinobenzamido)-benzoyl]-β-alanine] |
| 10 nM | N=C(N)c1ccc(C(=O)Nc2ccc(OCc3ccccc3)c(C(=O)NCCC(=O)O)c2)cc1 [Example 54, N-[5-(p-amidinobenzamido)-2-(benzyloxy)benzoyl]-β-alanine] |
| 380 nM | NCCCCCC(=O)Nc1ccc(Cl)c(C(=O)NCCC(=O)O)c1 [Example 17, N-[5-(6-aminohexanamido)-2-chlorobenzoyl]-β-alanine] |
| 150 nM | NCCCCC(=O)Nc1ccc(OCc2ccccc2)c(C(=O)NCCC(=O)O)c1 [Example 46, N-[5-(5-aminovaleramido)-2-(benzyloxy)benzoyl]-β-alanine] |
| 25 nM | N=C(N)c1ccc(C(=O)Nc2cc(C(=O)NCCC(=O)O)ccc2OCc2ccccc2)cc1 [Example 55, N-[3-(p-amidinobenzamido)-4-(benzyloxy)benzoyl]-β-alanine] |
| 380 nM | N=C(N)NCCCC(=O)Nc1cccc(C(=O)NCCC(=O)O)c1 [Example 24, N-[m-(4-guanidinobutyramido)benzoyl]-β-alanine] |
| 270 nM | N=C(N)NCC(=O)Nc1cccc(C(=O)NCCC(=O)O)c1 [Example 36, N-[m-[(N-amidinoglycyl)amino]benzoyl]-β-alanine] |
| 180 nM | N=C(N)NCCCCC(=O)Nc1ccc(OCc2ccccc2)c(C(=O)NCCC(=O)O)c1 [Example 47, N-[2-(benzyloxy)-5-(5-guanidinovaleramido)benzoyl]-β-alanine] |
| 240 nM | NCCCCC(=O)Nc1cccc(C(=O)NCCC(=O)O)c1 [Example 9, N-[m-(5-aminovaleramido)benzoyl]-β-alanine] |
| 460 nM | NCCCCCCC(=O)Nc1cccc(C(=O)NCCC(=O)O)c1 [Example 21, N-[m-(7-aminoheptanamido)benzoyl]-β-alanine] |
| 270 nM | NCCCCCC(=O)Nc1cccc(C(=O)NCCC(=O)O)c1 [Example 5, N-[m-(6-aminohexanamido)benzoyl]-β-alanine] |
| 160 nM | NCc1ccc(C(=O)Nc2cccc(C(=O)NCCC(=O)O)c2)cc1 [Example 8, N-[m-(α-amino-p-toluamido)benzoyl]-β-alanine] |

Test system: not listed separately
Assay: LD50 in the mouse (acute toxicity)
Details: in vivo, ip, intraperitoneally
Protocol: The compounds of formula I are non-toxic. Thus, the product of Example 10 has a LD50 of more than 1000 mg/kg intraperitoneally and more than 2000 mg/kg perorally in the mouse.

| SMILES | LD50 |
| --- | --- |
| N=C(N)NCCCCCC(=O)Nc1cccc(C(=O)NCCC(=O)O)c1 [Example 10, N-[m-(6-guanidinohexanamido)benzoyl]-β-alanine] | > 1000 mg/kg |

Same assay, conditions: in vivo, po, perorally

| SMILES | LD50 |
| --- | --- |
| N=C(N)NCCCCCC(=O)Nc1cccc(C(=O)NCCC(=O)O)c1 [Example 10, N-[m-(6-guanidinohexanamido)benzoyl]-β-alanine] | > 2000 mg/kg |
